Counter-ions that a name gives are not always drawn.
System: Long-Evans male rats
Test: IP administration of compounds in fasted Long-Evans male rats, 2 hr food intake
Format: in vivo
Settings: Rattus norvegicus; male Long Evans rats fasted 18-20 hr; 30 mg/kg (ip) in 2% tween; food given after 30 min, weighed 2 hr later; vs vehicle; read-out: inhibition of feeding (2 hr food intake)
Experimental: Protocol for IP Administration of Compounds in Fasted Long-Evans Male Rats
Male Long Evans rats (85-100 g)were obtained from Harlan (Indianapolis, Ind.) and were given at least a one week acclimation period to Ambients animal care facilities. Animals were individually housed and were provided ad libitum food and water. For testing, rats were fasted for 18-20 hr (overnight) prior to the start of the experiment. On the test day, test compounds or vehicle was administered via the intraperitoneal (i.p.) route of administration. Test compounds were suspended in a 2% tween solution; the 2% tween solution was used as the vehicle treatment (control group). Group sizes for each treatment were 6-8 animals. After 30 min, premeasured food was placed into the cages. Two hours later, the food was weighed again. The difference between 2 hr weight and the premeasured weight was taken as 2 hr food intake.

Row | SMILES | inhibition in vivo at 30 mg/kg [%]
1 | Cc1nc(N2CCCCC2)c2[nH]c(-c3cccc(Cl)c3)cc2n1 [Example 70e, 6-(3-Chlorophenyl)-2-methyl-4-piperidylpyrrolo[3,2-d]pyrimidine Hydrochloride Monohydrate] | ≥ 10
2 | Cc1nc(N2CCCCC2)c2[nH]c(-c3ccccc3)c(C)c2n1 [Example 90, 2,7-Dimethyl-6-phenyl-4-piperidylpyrrolo[3,2-d]pyrimidine Hydrochloride Monohydrate] | ≥ 10
3 | Cc1nc(N2CCCCC2)c2[nH]c(-c3ccccc3F)cc2n1 [Example 102, 6-(2-Fluorophenyl)-2-methyl-4-piperidylpyrrolo[3,2-d]pyrimidine Hydrochloride Monohydrate] | ≥ 10
4 | Cc1nc(N2CCCCC2)c2[nH]c(C)cc2n1 [Example 104, 2,6-Dimethyl-4-piperidylpyrrolo[3,2-d]pyrimidine Hydrochloride Hydrate] | ≥ 10
5 | COc1ccc(-c2cc3nc(C)nc(N4CCCCC4)c3[nH]2)cc1OC [Example 126, 1,2-Dimethoxy-4-(2-methyl-4-piperidylpyrrolo[4,5-d]pyrimidin-6-yl)benzene Hydrochloride Hydrate] | ≥ 10
6 | Cc1nc(N2CCCCC2)c2[nH]c(-c3ccc4c(c3)Cc3ccccc3-4)cc2n1 [Example 127, 6-Fluoren-2-yl-2-methyl-4-piperidylpyrrolo[3,2-d]pyrimidine Hydrochloride Hydrate] | ≥ 10
7 | Cc1nc(N2CCCCC2)c2[nH]c(-c3ccc(F)cc3)c(C)c2n1 [Example 134, 6-(4-Fluorophenyl)-2,7-dimethyl-4-piperidylpyrrolo[3,2-d]pyrimidine Hydrochloride Hydrate] | ≥ 10

System: not given
Test: not given
Settings: not given

Row | melting point [°C] | SMILES
8 | 209 to 210 | Cc1nc(N2CCCCCC2)c2[nH]c(-c3ccccc3)cc2n1 [Example 8, 4-Homopiperidyl-2-methyl-6-phenylpyrrolo[3,2-d]pyrimidine]
9 | 125 to 127.5 | Cc1nc(NCc2ccc(C)o2)c2[nH]c(-c3ccccc3)cc2n1 [Example 17]
10 | 269.5 to 272 | CC(C)c1nc(N2CCCCC2)c2[nH]c(-c3ccccc3)cc2n1 [Example 19d, 2-Isopropyl-6-phenyl-4-piperidylpyrrolo[3,2-d]pyrimidine]
11 | 236 | Cc1nc(N2CCNCC2)c2[nH]c(-c3ccccc3)cc2n1 [Example 26, 2-methyl-6-phenyl-4-piperazinylpyrrolo[3,2-d]pyrimidine]
12 | 275 to 276.5 | Cc1nc(NCc2ccccc2)c2[nH]c(-c3ccccc3)cc2n1 [Example 29, (2-Methyl-6-phenylpyrrolo[2,3-e]pyrimidin-4-yl)benyzlamine]
13 | 131 to 132 | Cc1nc(N2CCCCC2)c2c(cc(-c3ccccc3)n2C)n1 [Example 36, 2,5-Dimethyl-6-phenyl-4-piperidylpyrrolo[3,2-d]pyrimidine]
14 | 259 to 261.5 | c1ccc(-c2nc(N3CCCCC3)c3[nH]c(-c4ccccc4)cc3n2)cc1 [Example 45d, 2,6-Diphenyl-4-piperidylpyrrolo[3,2-d]pyrimidine]
15 | 188 to 190 | CC(=O)c1c(-c2ccccc2)[nH]c2c(N3CCCCC3)nc(C)nc12 [Example 49, 7-Acetyl-2-methyl-6-phenyl-4-piperidylpyrrolo[3,2-d]pyrimidine]
16 | > 280 | Cc1nc(N2CCCCC2)c2[nH]c(-c3cc(C(F)(F)F)cc(C(F)(F)F)c3)cc2n1.Cl [Example 122]
17 | 123 to 125 | Cc1c(-c2ccccc2)n(C)c2c(N3CCCCC3)ncnc12 [Example 155, 5,7-Dimethyl-6-phenyl-4-piperidylpyrrolo[3,2-d]pyrimidine]
18 | 169 to 170 | Cc1nc(N2CCCCC2)c2[nH]c(-c3ccccc3)cc2[n+]1[O-] [Example 184, 2-Methyl-6-phenyl-4-piperidylpyrrolo[3,2-d]pyrimidin-1-ol]

From patent US6583154B1, “Compounds and methods which modulate feeding behavior and related diseases” (Amgen Inc., priority 1998, dated 2003)
